Data from the NIST ThermoML archive (doi:10.1016/j.jct.2011.02.011).
Where “and” joins values, the source holds several entries; their conditions need not be identical. Equal values may be shown once.

Details: Crystal, Calculated from knudsen effusion weight loss

[O-][n+]1ccccc1-c1ccccn1 [2,2'-bipyridyl N-oxide]
Details	vapor or sublimation pressure
319.17 K	5.02e-05 kPa and 4.83e-05 kPa and 4.82e-05 kPa
321.15 K	6.32e-05 kPa and 6.13e-05 kPa
323.16 K	7.8e-05 kPa and 8.26e-05 kPa and 7.96e-05 kPa
325.15 K	0.0001 kPa and 9.94e-05 kPa and 0.000102 kPa
327.14 K	0.000126 kPa and 0.000128 kPa and 0.000127 kPa
329.16 K	0.000163 kPa and 0.000161 kPa and 0.000162 kPa
331.13 K	0.000201 kPa and 0.000198 kPa and 0.0002 kPa
